Common to all, as to format: functional
One assay concerns Kluyveromyces marxianus. Put plainly: Antimycotic activity against Kluyveromyces marxianus DBVPG 6141 by agar diffusion disk bioassay.
In assay [1] the test system is Saccharomyces cerevisiae. The assay is described as follows: Antimycotic activity against Saccharomyces cerevisiae DBVPG 6173 by agar diffusion disk bioassay. Background: In agar diffusion tests the substance spreads into inoculated agar from a disc or well.
Assay [2] relates to Papiliotrema laurentii. Put plainly: Antimycotic activity against Cryptococcus laurentii DBVPG 4272 by agar diffusion disk bioassay.
A further assay deals with Prototheca wickerhamii. Put plainly: Antimycotic activity against Prototheca wickerhamii DBVPG 8879 by agar diffusion disk bioassay.
In assay [3] the test system is Papiliotrema laurentii. Put plainly: Antimycotic activity against Cryptococcus laurentii DBVPG 6265 by agar diffusion disk bioassay.
Assay [4] has as its system Papiliotrema laurentii. Put plainly: Antimycotic activity against Cryptococcus laurentii DBVPG 3883 by agar diffusion disk bioassay.
In assay [5] the test system is Saccharomyces cerevisiae. Put plainly: Antimycotic activity against Saccharomyces cerevisiae DBVPG 6500 by agar diffusion disk bioassay.
The subject of assay [6] is Candida albicans. Put plainly: Antimycotic activity against Candida albicans DBVPG 6157 by agar diffusion disk bioassay.
For another assay, the system named is Clavispora lusitaniae. The assay is described as follows: Antimycotic activity against Clavispora lusitaniae DBVPG 6142 by agar diffusion disk bioassay.
Assay [7] relates to Candida albicans. Put plainly: Antimycotic activity against Candida albicans DBVPG 6133 by agar diffusion disk bioassay.
Assay [8] relates to Cryptococcus neoformans. Put plainly: Antimycotic activity against Filobasidiella neoformans DBVPG 6010 by agar diffusion disk bioassay.
Assay [9] concerns Cryptococcus neoformans. Put plainly: Antimycotic activity against Filobasidiella neoformans DBVPG 6225 by agar diffusion disk bioassay.
In another assay the test system is Yarrowia lipolytica. The assay is described as follows: Antimycotic activity against Yarrowia lipolytica DBVPG 6053 by agar diffusion disk bioassay.
A further assay has as its system Pichia kudriavzevii. The assay is described as follows: Antimycotic activity against Issatchenkia orientalis DBVPG 6782 by agar diffusion disk bioassay.
The next assay deals with [Candida] zeylanoides. The assay is described as follows: Antimycotic activity against Candida zeylanoides DBVPG 6163 by agar diffusion disk bioassay.
Assay [10] has as its system Cryptococcus neoformans. The assay is described as follows: Antimycotic activity against Filobasidiella neoformans DBVPG 6981 by agar diffusion disk bioassay.
Assay [11] relates to Cryptococcus neoformans. Put plainly: Antimycotic activity against Filobasidiella neoformans DBVPG 3428 by agar diffusion disk bioassay.
The next assay has as its system Candida tropicalis. Put plainly: Antimycotic activity against Candida tropicalis DBVPG 3982 by agar diffusion disk bioassay.
The next assay has as its system Nakaseomyces glabratus. Put plainly: Antimycotic activity against Candida glabrata DBVPG 7212 by agar diffusion disk bioassay.
Assay [12] deals with Meyerozyma guilliermondii. The assay is described as follows: Antimycotic activity against Pichia guilliermondii DBVPG 6140 by agar diffusion disk bioassay.
The test system of assay [13] is Cryptococcus neoformans. The assay is described as follows: Antimycotic activity against Filobasidiella neoformans DBVPG 6982 by agar diffusion disk bioassay.

SMILES strings stand for the structures.

As for `COc1cc(OC)c2c(c1)OC(c1ccc(O)c(O)c1)CS2` (stereo not given), the inhibition zone (IZ) in the assay with Kluyveromyces marxianus stood at 14.9 mm; in the assay with Saccharomyces cerevisiae [1], 14.6 mm; in the assay on Papiliotrema laurentii [2], 19.3 mm; in the assay with Prototheca wickerhamii, 14.5 mm; in the assay on Papiliotrema laurentii [3], 2.6 mm; in the assay on Papiliotrema laurentii [4], 13.1 mm. For the same compound, the inhibition zone (IZ) in the assay on Saccharomyces cerevisiae [5] was found to be 14.9 mm; in the assay on Candida albicans [6] it was 12.1 mm; in the assay with Clavispora lusitaniae it was 13.9 mm.
Take `COc1ccc(C2CSc3c(O)cc(O)cc3O2)cc1` (stereo not given): the inhibition zone (IZ) came out at 15.1 mm in the assay with Saccharomyces cerevisiae [1]; 17.5 mm with Papiliotrema laurentii [2]; 13.3 mm in the assay with Papiliotrema laurentii [3]; 12.4 mm in the assay with Candida albicans [7]; 14.7 mm with Saccharomyces cerevisiae [5].
As for `COc1ccc(C2CSc3cc(O)ccc3O2)cc1` (stereo not given), the results for the inhibition zone (IZ) with Papiliotrema laurentii [2] and with Cryptococcus neoformans [8] were 22 mm and 13.6 mm, respectively.
Consider `Oc1ccc(C2CSc3cc(O)ccc3O2)cc1` (stereo not given), for which the inhibition zone (IZ) with Saccharomyces cerevisiae [1] came to 15.2 mm; with Papiliotrema laurentii [2], 16.4 mm; in the assay on Cryptococcus neoformans [9], 11.2 mm; in the assay with Papiliotrema laurentii [3], 16.9 mm; in the assay on Cryptococcus neoformans [8], 15.5 mm; in the assay on Papiliotrema laurentii [4] it was 13.8 mm. In addition, the figures for the inhibition zone (IZ) in the assay with Yarrowia lipolytica and in the assay with Clavispora lusitaniae were 14.3 mm and 12.9 mm, respectively.
For `COc1ccc2c(c1)OC(c1ccc(O)cc1)CS2` (stereo not given), the inhibition zone (IZ) in the assay on Pichia kudriavzevii is 17.6 mm; in the assay on Saccharomyces cerevisiae [1], 24.1 mm; in the assay with Papiliotrema laurentii [2] it was 30.2 mm; in assay [Candida] zeylanoides it was 19.4 mm; in the assay on Prototheca wickerhamii it was 20.7 mm; with Cryptococcus neoformans [9] it was 18.4 mm. For the same compound, the inhibition zone (IZ) was determined as 20.6 mm with Papiliotrema laurentii [3]; 17.5 mm in the assay on Candida albicans [7]; 25.1 mm with Cryptococcus neoformans [10]; 20 mm with Cryptococcus neoformans [11]; 35.1 mm with Cryptococcus neoformans [8]; 18.2 mm with Papiliotrema laurentii [4]. Also, the inhibition zone (IZ) was 20.2 mm in the assay with Candida tropicalis; 15.8 mm with Yarrowia lipolytica; 18.3 mm in the assay with Saccharomyces cerevisiae [5]; 16.5 mm in the assay on Candida albicans [6]; 15.3 mm in the assay with Clavispora lusitaniae.
Consider `Oc1ccc(C2CSc3ccc(O)cc3O2)cc1` (stereo not given), for which the inhibition zone (IZ) is 14 mm in the assay with Pichia kudriavzevii; 15.6 mm in the assay with Saccharomyces cerevisiae [1]; 28.5 mm in the assay with Papiliotrema laurentii [2]; 16.4 mm in [Candida] zeylanoides; 17.8 mm with Prototheca wickerhamii; 17 mm with Cryptococcus neoformans [9]. The inhibition zone (IZ) in the assay on Papiliotrema laurentii [3] was determined as 17.8 mm; in the assay with Candida albicans [7] it was 16.2 mm; in the assay with Cryptococcus neoformans [10], 15.6 mm; in the assay on Cryptococcus neoformans [11], 17.4 mm; with Cryptococcus neoformans [8], 15.5 mm; in the assay on Papiliotrema laurentii [4], 22.6 mm. Also, the inhibition zone (IZ) was determined as 13.1 mm with Nakaseomyces glabratus; 15.5 mm in the assay with Candida tropicalis; 16.5 mm with Yarrowia lipolytica; 19.2 mm in the assay with Saccharomyces cerevisiae [5]; 17.2 mm in assay [12]; 18.3 mm with Candida albicans [6]. In the assay with Clavispora lusitaniae, this compound had an inhibition zone (IZ) of 12.4 mm.
With `COc1ccc(C2CSc3ccc(O)cc3O2)cc1` (stereo not given), the inhibition zone (IZ) in the assay with Papiliotrema laurentii [2] came to 26.4 mm; in the assay on Cryptococcus neoformans [9], 14.9 mm; with Papiliotrema laurentii [3], 16.8 mm; in the assay on Cryptococcus neoformans [10], 14.2 mm; in the assay with Cryptococcus neoformans [11], 14.6 mm; with Cryptococcus neoformans [8], 18.1 mm. In addition, the inhibition zone (IZ) in the assay on Cryptococcus neoformans [13] was 12.9 mm; with Yarrowia lipolytica, 15.6 mm; in the assay on Saccharomyces cerevisiae [5] it was 20.6 mm; in the assay on Candida albicans [6], 14.1 mm.
